Values after ≈ are worked out from the molar mass of the structure shown. *1 amine or outer side, *2 acyl side, *3 side chain or, on linkers, in order; H or OH if unused. Where a SMILES comes first, the peptide text is derived from it. [ ]: non-standard residue; d: D form. The star is where a group is joined. ξ: configuration not given here. X1 = C[C@@H](N=[N+]=[N-])[C@H](N[*:1])C(=O)[*:2]; Octanoyl(7-Me) = CC(C)CCCCCC(=O)*; Hexanoyl(4ξ-Me) = CCC(C)CCC(=O)*; dOrn = NCCC[C@@H](N)C(=O)O; Orn = NCCC[C@H](N)C(=O)O
Experiments:
[1] = test system: E. coli (MCR-1); assay type: cell-based, Escherichia coli; details: microbroth dilution per CLSI, MHB, 18 h at 37 °C, visual inspection, three technical replicates, E. coli 25922 carrying mcr-1
Method: (§1) Linear laterocidine (LL-OH, 4) and linear brevicidine (LB-OH, 5) were first synthesized by Fmoc SPPS, starting from 2-chlorotrityl (2-CT) chloride resin. The antibacterial activity of these peptides was then compared to brevicidine (1) and laterocidine (2) using minimum inhibitory concentration (MIC)/microbroth dilution assays (Table 1). The MICs of all peptides were determined against a panel of Gram-negative and Gram-positive ESKAPE pathogens. Additionally, a strain of E. coli carrying the mcr-1 gene was included in the panel. The mcr-1 gene is a transferrable plasmid that confers resistance against colistin, a last-resort antibiotic for Gram-negative infections, by reducing the overall negative charge of lipopolysaccharide (LPS) through modification of lipid A with phosphoethanolamine. The propensity for cationic antibiotics to bind to the cell membrane is therefore reduced. This gene has been observed in more than 27 bacterial species over six continents.[26] The spread of the mcr-1 gene could render colistin ineffectual; therefore, novel antibacterials are urgently required to overcome this form of resistance.
(§2) All minimum inhibitory concentrations (MICs) were determined according to Clinical and Laboratory Standards Institute (CLSI) guidelines. Blood agar plates were inoculated with glycerol stocks of E. coli ATCC 25922, K. pneumoniae ATCC 13883, A. baumannii ATCC 17961, P. aeruginosa PAO1, and S. aureus USA300. The inoculated agar plates were then incubated for 16 h at 37 °C. Individually grown colonies were subsequently used to inoculate 5 mL aliquots of TSB that were then incubated at 37 °C with shaking at 220 rpm. E. coli 25922 MCR-1 glycerol stock was used to inoculate 5 mL of TSB supplemented with kanamycin that was then incubated for 16 h at 37 °C with shaking at 220 rpm. The next day the culture was diluted 100-fold in TSB supplemented with kanamycin and incubated at 37 °C with shaking at 220 rpm. In parallel, the lipopeptide antibiotics DMSO stocks to be assessed were serially diluted with MHB in polypropylene 96-well plates (50 μL in each well). Colistin sulfate stocks were dissolved in water before being diluted with MHB. Aliquots of the inoculated TSB were incubated until an OD600 of around 0.5 was reached. The bacterial suspensions were then diluted with MHB (2 × 10^5 CFU/mL) and added to the microplates containing the test compounds (50 μL to each well). The well plates were sealed with an adhesive membrane and after 18 h of incubation at 37 °C with shaking at 600 rpm, the wells were visually inspected for bacterial growth. MIC values reported are based on three technical replicates and defined as the lowest concentration of the compound that prevented visible growth of bacteria.

[2] = test system: E. coli ATCC 25922; assay type: cell-based, Escherichia coli; details: for MIC (µg/mL) against E. coli (ATCC 25922): (Supplement 2); for Antibacterial activity (MIC) E. coli ATCC 25922: microbroth dilution per CLSI, MHB, 18 h at 37 °C, visual inspection, three technical replicates
Method: as §1, §2

[3] = test system: K. pneumoniae ATCC 13883; assay type: cell-based, Klebsiella pneumoniae; details: microbroth dilution per CLSI, MHB, 18 h at 37 °C, visual inspection, three technical replicates
Method: as §1, §2

[4] = test system: A. baumannii ATCC 17961; assay type: cell-based, Acinetobacter baumannii; details: microbroth dilution per CLSI, MHB, 18 h at 37 °C, visual inspection, three technical replicates
Method: as §1, §2

[5] = test system: S. aureus USA300; assay type: cell-based, Staphylococcus aureus; details: microbroth dilution per CLSI, MHB, 18 h at 37 °C, visual inspection, three technical replicates
Method: as §1, §2

[6] = test system: P. aeruginosa PAO1; assay type: cell-based, Pseudomonas aeruginosa; details: microbroth dilution per CLSI, MHB, 18 h at 37 °C, visual inspection, three technical replicates
Method: as §1, §2

| SMILES | Antibacterial activity (MIC) E. coli (MCR-1) [1] | MIC (µg/mL) against E. coli (ATCC 25922) [2] | Antibacterial activity (MIC) E. coli ATCC 25922 [2] | Antibacterial activity (MIC) K. pneumoniae ATCC 13883 [3] | Antibacterial activity (MIC) A. baumannii ATCC 17961 [4] | Antibacterial activity (MIC) S. aureus USA300 [5] | Antibacterial activity (MIC) P. aeruginosa PAO1 [6] |
| --- | --- | --- | --- | --- | --- | --- | --- |
| CCC(C)CCC(=O)N[C@H](CC(N)=O)C(=O)N[C@H](Cc1ccc(O)cc1)C(=O)N[C@H](Cc1c[nH]c2ccccc12)C(=O)N[C@H](CCCN)C(=O)N[C@@H](CCCN)C(=O)NCC(=O)N[C@H](CCCN)C(=O)N[C@@H](Cc1c[nH]c2ccccc12)C(=O)N[C@@H](CC(=O)O)C(=O)N[C@H](C(=O)NCC(N)=O)[C@@H](C)CC (some centres unmarked) [Δ12LB (Asp9)-NH2 (63)] ({Hexanoyl(4ξ-Me)}-[dN][dY][dW][dOrn][Orn]G[dOrn]WDIG-NH2) | >32 µg/mL | 4 µg/mL (≈ 2.73 µM) | >32 µg/mL | >32 µg/mL | >32 µg/mL | >32 µg/mL | 4 µg/mL |
| CC[C@H](C)[C@H](NC(=O)[C@H](CC(C)C)NC(=O)[C@H](Cc1c[nH]c2ccccc12)NC(=O)[C@@H](CCCN)NC(=O)CNC(=O)[C@H](CCCN)NC(=O)[C@@H](CCCN)NC(=O)[C@@H](Cc1c[nH]c2ccccc12)NC(=O)[C@@H](Cc1ccc(O)cc1)NC(=O)[C@@H](CO)NC(=O)CCCCCC(C)C)C(=O)N[C@@H](CC(N)=O)C(=O)NCC(=O)NCC(N)=O [LL(Leu9)-NH2 (42)] ({Octanoyl(7-Me)}-[dS][dY][dW][dOrn][Orn]G[dOrn]WLINGG-NH2) | 8 µg/mL | 4 µg/mL (≈ 2.45 µM) | 4 µg/mL | 8 µg/mL | 4 µg/mL | >32 µg/mL | 8 µg/mL |
| CCC(C)CCC(=O)N[C@H](CC(N)=O)C(=O)N[C@H](Cc1ccc(O)cc1)C(=O)N[C@H](Cc1c[nH]c2ccccc12)C(=O)N[C@H](CCCN)C(=O)N[C@@H](CCCN)C(=O)NCC(=O)N[C@H](CCCN)C(=O)N[C@@H](Cc1c[nH]c2ccccc12)C(=O)N[C@H](C(=O)N[C@H](C(=O)NCC(N)=O)[C@@H](C)CC)[C@@H](C)N=[N+]=[N-] (some centres unmarked) [Δ12LB (MeAbu9)-NH2 (60)] ({Hexanoyl(4ξ-Me)}-[dN][dY][dW][dOrn][Orn]G[dOrn]W[X1]IG-NH2) | 4 µg/mL | 8 µg/mL (≈ 5.42 µM) | 4 µg/mL | 2 µg/mL | 2 µg/mL | >32 µg/mL | 4 µg/mL |
| CC[C@H](C)[C@H](NC(=O)[C@H](CCC(N)=O)NC(=O)[C@H](Cc1c[nH]c2ccccc12)NC(=O)[C@@H](CCCN)NC(=O)CNC(=O)[C@H](CCCN)NC(=O)[C@@H](CCCN)NC(=O)[C@@H](Cc1c[nH]c2ccccc12)NC(=O)[C@@H](Cc1ccc(O)cc1)NC(=O)[C@@H](CO)NC(=O)CCCCCC(C)C)C(=O)N[C@@H](CC(N)=O)C(=O)NCC(=O)NCC(N)=O [LL(Gln9)-NH2 (48)] ({Octanoyl(7-Me)}-[dS][dY][dW][dOrn][Orn]G[dOrn]WQINGG-NH2) | 8 µg/mL | 4 µg/mL (≈ 2.43 µM) | 4 µg/mL | 4 µg/mL | 8 µg/mL | >32 µg/mL | 4 µg/mL |
| CC(C)CCCCCC(=O)N[C@H](CO)C(=O)N[C@H](Cc1ccc(O)cc1)C(=O)N[C@H](Cc1c[nH]c2ccccc12)C(=O)N[C@H](CCCN)C(=O)N[C@@H](CCCN)C(=O)NCC(=O)N[C@H](CCCN)C(=O)N[C@@H](Cc1c[nH]c2ccccc12)C(=O)N[C@H](C(N)=O)[C@@H](C)O [Δ10–13LL-NH2 (14)] ({Octanoyl(7-Me)}-[dS][dY][dW][dOrn][Orn]G[dOrn]WT-NH2) | 32 µg/mL | – | >32 µg/mL | >32 µg/mL | 32 µg/mL | >32 µg/mL | >32 µg/mL |
| CCC(C)CCC(=O)N[C@H](CC(N)=O)C(=O)N[C@H](Cc1ccc(O)cc1)C(=O)N[C@H](Cc1c[nH]c2ccccc12)C(=O)N[C@H](CCCN)C(=O)N[C@@H](CCCN)C(=O)NCC(=O)N[C@H](CCCN)C(=O)N[C@@H](Cc1c[nH]c2ccccc12)C(=O)N[C@H](C(=O)N[C@H](C(N)=O)[C@@H](C)CC)[C@@H](C)O (some centres unmarked) [Δ11–12LB-NH2 (11)] ({Hexanoyl(4ξ-Me)}-[dN][dY][dW][dOrn][Orn]G[dOrn]WTI-NH2) | 4 to 8 µg/mL | – | 4 µg/mL | 2 µg/mL | 8 µg/mL | >32 µg/mL | 2 µg/mL |
| CCC(C)CCC(=O)N[C@H](CC(N)=O)C(=O)N[C@H](Cc1ccc(O)cc1)C(=O)N[C@H](Cc1c[nH]c2ccccc12)C(=O)N[C@H](CCCN)C(=O)N[C@@H](CCCN)C(=O)NCC(=O)N[C@H](CCCN)C(=O)N[C@@H](Cc1c[nH]c2ccccc12)C(N)=O (some centres unmarked) [Δ9–12LB-NH2 (15)] ({Hexanoyl(4ξ-Me)}-[dN][dY][dW][dOrn][Orn]G[dOrn]W-NH2) | >32 µg/mL | – | >32 µg/mL | >32 µg/mL | >32 µg/mL | >32 µg/mL | >32 µg/mL |
| CC[C@H](C)[C@H](NC(=O)[C@@H](NC(=O)[C@H](Cc1c[nH]c2ccccc12)NC(=O)[C@@H](CCCN)NC(=O)CNC(=O)[C@H](CCCN)NC(=O)[C@@H](CCCN)NC(=O)[C@@H](Cc1c[nH]c2ccccc12)NC(=O)[C@@H](C)NC(=O)[C@@H](CO)NC(=O)CCCCCC(C)C)[C@@H](C)O)C(=O)N[C@@H](CC(N)=O)C(=O)NCC(=O)NCC(N)=O [LL(D-Ala2)-NH2 (30)] ({Octanoyl(7-Me)}-[dS][dA][dW][dOrn][Orn]G[dOrn]WTINGG-NH2) | 32 µg/mL | – | 32 µg/mL | >32 µg/mL | >32 µg/mL | >32 µg/mL | 16 µg/mL |
| CCC(C)CCC(=O)N[C@H](CC(N)=O)C(=O)N[C@H](Cc1ccc(O)cc1)C(=O)N[C@H](Cc1c[nH]c2ccccc12)C(=O)N[C@H](CCCN)C(=O)N[C@@H](CCCN)C(=O)NCC(=O)N[C@H](CCCN)C(=O)N[C@@H](Cc1c[nH]c2ccccc12)C(=O)N[C@@H](CC(C)C)C(=O)N[C@H](C(=O)NCC(N)=O)[C@@H](C)CC (some centres unmarked) [Δ12LB (Leu9)-NH2 (53)] ({Hexanoyl(4ξ-Me)}-[dN][dY][dW][dOrn][Orn]G[dOrn]WLIG-NH2) | 4 µg/mL | 8 µg/mL (≈ 5.47 µM) | 4 µg/mL | 4 µg/mL | 4 µg/mL | >32 µg/mL | 8 µg/mL |

— PMC10150354, “Linearization of the Brevicidine and Laterocidine Lipopeptides Yields Analogues That Retain Full Antibacterial Activity” (Journal of Medicinal Chemistry, 2023)
